Measured values: paper PMC4773904 (The New England journal of medicine, 2015)

Assays:
[1] = tested on: metastatic ALK-rearranged NSCLC; experiment: Case report: treatment course of a patient with metastatic ALK-rearranged NSCLC; assay type: in vivo, human; conditions: first restaging CT after 5 weeks of treatment, phase 1 trial, single patient
[2] = tested on: Ba/F3 cells expressing EML4-ALK L1198F; experiment: Ba/F3 cell-survival assay; assay type: cell-based
[3] = tested on: Ba/F3 cells expressing EML4-ALK C1156Y–L1198F; experiment: Ba/F3 cell-survival assay; assay type: cell-based
ALK = conditions: in cell lines; cited from earlier work
previously treated NSCLC = conditions: patients with previously treated NSCLC, phase 3 trial; cited from earlier work

Structure (SMILES) | Reduction in tumor burden [1] [%] | Sensitivity in cell-survival assay (in words) [2] | Sensitivity in cell-survival assay (in words) [3] | Potency against ALK (ALK) | Response rate (previously treated NSCLC) [%]
C[C@H]1Oc2cc(cnc2N)-c2c(nn(C)c2C#N)CN(C)C(=O)c2ccc(F)cc21 [lorlatinib, (10R)-7-amino-12-fluoro-2,10,16-trimethyl-15-oxo-10,15,16,17-tetrahydro-2H-8,4-(metheno)pyrazolo [4,3-h][2,5,11]-benzoxadiazacyclotetra decine-3-carbonitrile] | 41 | variable degrees of resistance | resistant | subnanomolar to low nanomolar | 
CCC1=C[C@@H]2CN(C1)Cc1c([nH]c3ccccc13)[C@@](C(=O)OC)(c1cc3c(cc1OC)N(C)[C@H]1[C@@](O)(C(=O)OC)[C@H](OC(C)=O)[C@]4(CC)C=CCN5CC[C@]31[C@@H]54)C2 [vinorelbine] |  |  |  |  | 0.8
